What all share (format): in vivo
For assay [1], the system named is Pyricularia oryzae.
For assay [2], the system named is Pyricularia oryzae. Conditions: rice blast, nursery box application of granule.
Assay [3] relates to Pyricularia oryzae. The assay is described as follows: whole plant or invertebrate.
Assay [4] relates to Rhizoctonia solani. Nature of the assay: Test Example 4: control test on paddy rice sheath blight, spraying. On the procedure:
A compound solution of a prescribed concentration was sprayed on three 1/5000a rice pots (cultivar: Koshihikari; 4 leaf stage). After one day from the spraying, Rhizoctonia solani cultured on a rice chaff/bran medium was inoculated on the basal of the rice plant. After 10 days from the inoculation, the extended lesion length of sheath blight of the whole stem was examined. The control value was calculated according to the following equation (3 replications).
(§1) Control Value=(1−average lesion length per a stem in the treated plot/average lesion length per a stem in the untreated plot)×100

The test system of assay [5] is Rhizoctonia solani. The assay is described as follows: Test Example 5: control test on paddy rice sheath blight, submerged application. Particulars: submerged application of granule. On the procedure:
After 14 days from the treatment, Rhizoctonia solani cultured on a rice chaff/bran medium was inoculated on the basal of the rice plant. After 10 days from the inoculation, the extended lesion length of sheath blight of the whole stem was examined. The control value was calculated according to the following equation (3 replications).
as §1

In assay [6] the test system is Rhizoctonia solani. The assay is described as follows: Test Example 6: control test on paddy rice sheath blight, nursery box application. Conditions: nursery box application of granule. On the procedure:
After 30 days from the treatment, Rhizoctonia solani cultured on a rice chaff/bran medium was inoculated on the basal of the rice plant. After 10 days from the inoculation, the extended lesion length of sheath blight of the whole stem was examined. The control value was calculated according to the following equation (3 replications).
as §1

The mark [7] stands for this setting: rice blast, sprayed at 60 ppm active ingredient, lesions after 7 days.
Where [8] appears, read: Pyricularia oryzae, 168 h, read-out: Control value.

Read-outs that look alike come from different tables or passages of the source.

With `CSCC(C)OC(=O)NC(CNC(=O)c1ccc(C)cc1)C(C)C` (stereo not shown) [Formula (17), reference compound], the “Effect (class of control value)” value in the assay with Pyricularia oryzae [1] (setting [7]) is “C (Less than 50%)”. For the compound `Cc1ccc(C(=O)NCC(NC(=O)OCCI)C(C)C)cc1` (stereo not shown) [Compound 5], the “Effect (class of control value)” value with Pyricularia oryzae [1] (in vivo) is “A (key: A: Not less than 80%; B: Not less than 50% to less than 80%; C: Less than 50%)”. With `Cc1ccc(C(=O)NCC(NC(=O)OCCCl)C(C)C)cc1` (stereo not shown) [Compound 3], in the assay on Pyricularia oryzae [1] (in vivo), the “Effect (class of control value)” value is “A (key: A: Not less than 80%; B: Not less than 50% to less than 80%; C: Less than 50%)”. For `Cc1ccc(C(=O)NC(CNC(=O)OCC(Cl)(Cl)Cl)C(C)C)cc1` (stereo not shown) [Compound 7, N-(2,2,2-trichloroethyloxycarbonyl)-N′-(4-methylbenzoyl)-3-methyl-1,2-butanediamine], the “Effect (class of control value)” value in the assay on Pyricularia oryzae [1] (setting [7]) is on record as “A (Not less than 80%)”.

The compound `Cc1cccc2sc3nncn3c12` [Tricyclazole, reference compound] gave a Control value with Pyricularia oryzae [2] (2 gai/box) of 96. The pest or weed control at 200 ppm with Pyricularia oryzae [3] (setting [8]) amounted to 99%.

In the case of `OCC1=C[C@H](N[C@H]2C[C@H](CO)[C@@H](O[C@@H]3O[C@H](CO)[C@@H](O)[C@H](O)[C@H]3O)[C@H](O)[C@H]2O)[C@H](O)[C@@H](O)[C@@H]1O` [Validamycin, reference compound], the Control value in the assay with Rhizoctonia solani [4] (60 ppm) is given as 94.

`CCC(CC)C(CNC(=O)c1ccc(C)cc1)NC(=O)OCC(F)(F)F` (stereo not shown) [Compound 39]: the “Effect (class of control value)” value in the assay on Pyricularia oryzae [1] (in vivo) was “A (key: A: Not less than 80%; B: Not less than 50% to less than 80%; C: Less than 50%)”. Still for that read-out and setting: for `Cc1ccc(C(=O)NCC(NC(=O)OC(CBr)CBr)C(C)C)cc1` (stereo not shown) [Compound 11] the value was “B (key: A: Not less than 80%; B: Not less than 50% to less than 80%; C: Less than 50%)”. Compound `Cc1c(Cl)cc(-c2ccc(=O)[nH]n2)cc1Cl` [Diclomezine, reference compound] displayed a Control value in the assay with Rhizoctonia solani [4] (20 ppm) of 95.

As for `CCOP(=O)(Sc1ccccc1)Sc1ccccc1` [EDDP, reference compound], the Control value in the assay with Pyricularia oryzae [3] (300 ppm) turned out to be 97.

For `CC(CNC(=O)c1cc2ccccc2o1)NC(=O)OCC(F)(F)F` (stereo not shown) [Compound 40], the Control value was 4 in the assay on Rhizoctonia solani [4] (60 ppm) and 97 in the assay on Pyricularia oryzae [3] (60 ppm). In addition, the “Effect (class of control value)” value in the assay on Pyricularia oryzae [1] (in vivo) was “A (key: A: Not less than 80%; B: Not less than 50% to less than 80%; C: Less than 50%)”. With `Cc1ccc(C(=O)NCC(NC(=O)Oc2ccc3ccccc3c2)C(C)C)cc1` (stereo not shown) [Formula (16), reference compound], the “Effect (class of control value)” value in the assay on Pyricularia oryzae [1] (setting [7]) was “C (Less than 50%)”. Regarding `CC(=O)Oc1c(C)c(C)nc2c(F)cc(C(C)(C)C)cc12` [Compound 105, reference compound], the pest or weed control at 300 ppm in the assay with Pyricularia oryzae [3] (setting [8]) stood at 98%. As for `Cc1ccc(C(=O)NCC(NC(=O)OCCC(F)(F)C(F)(F)C(F)(F)C(F)(F)F)C(C)C)cc1` (stereo not shown) [Compound 14], the “Effect (class of control value)” value in the assay on Pyricularia oryzae [1] (in vivo) is “B (key: A: Not less than 80%; B: Not less than 50% to less than 80%; C: Less than 50%)”. Regarding `CC(C)(C)C(CNC(=O)c1cc2ccccc2o1)NC(=O)OCC(F)(F)F` (stereo not shown) [Compound 31], the Control value is given as 4 with Rhizoctonia solani [4] (60 ppm), 4 in the assay on Rhizoctonia solani [5] (225 gai/10a), 96 in the assay on Pyricularia oryzae [3] (60 ppm) and 2 with Rhizoctonia solani [6] (7.5 gai/box). Besides, in the assay with Pyricularia oryzae [1] (in vivo), the “Effect (class of control value)” value is listed as “A (key: A: Not less than 80%; B: Not less than 50% to less than 80%; C: Less than 50%)”. As for `Cc1ccc(C(=O)NCC(NC(=O)OCCCCl)C(C)C)cc1` (stereo not shown) [Compound 10], the “Effect (class of control value)” value with Pyricularia oryzae [1] (in vivo) is given as “A (key: A: Not less than 80%; B: Not less than 50% to less than 80%; C: Less than 50%)”. `C=CCOC1=NS(=O)(=O)c2ccccc21` [Probenazole]: the Control value with Pyricularia oryzae [2] (12 gai/box) is on record as 98.

As to `CSC(=O)c1cccc2nnsc12` [Acibenzolar-S-methyl], in the assay with Pyricularia oryzae [2] (1 gai/box), the Control value is on record as 96. Consider `Cc1ccc(C(=O)NC(CNC(=O)OC(C(F)(F)F)C(F)(F)F)C(C)C)cc1` (stereo not shown) [Compound 8, N-(1,1,1,3,3,3-hexafluoro-2-propyloxycarbonyl)-N′-(4-methylbenzoyl)-3-methyl-1,2-butanediamine], for which the “Effect (class of control value)” value in the assay on Pyricularia oryzae [1] (setting [7]) was “A (Not less than 80%)”.

Turning to `O=C1OCc2c(Cl)c(Cl)c(Cl)c(Cl)c21` [Fthalide, reference compound], the pest or weed control at 300 ppm in the assay with Pyricularia oryzae [3] (setting [8]) was 97%.

In the case of `CC(C)CC(C)c1sccc1NC(=O)c1cn(C)nc1C(F)(F)F` (racemic) [Penthiopyrad, (RS)—N-[2-(1,3-dimethylbutyl)thiophene-3-yl]-1-methyl-3-trifluoromethyl-1H-pirazole-4-carboxamide, reference compound], the pest or weed control at 200 ppm in the assay on Pyricularia oryzae [3] (setting [8]) worked out at 95%. Consider `C[C@H]1O[C@H](O[C@H]2[C@H](O)[C@@H](O)[C@@H](O)[C@H](O)[C@@H]2O)[C@@H](N)C[C@@H]1NC(=N)C(=O)O` [Kasugamycin, reference compound], for which the Control value in the assay on Pyricularia oryzae [3] (rice blast, spraying, 20 ppm) is given as 97. In the case of `Cc1ccc(C(=O)NCC(NC(=O)OCC(F)(F)F)C(C)(C)C)cc1` (stereo not shown) [Compound 24], the Control value in the assay with Rhizoctonia solani [4] (60 ppm) was found to be 2; in the assay on Rhizoctonia solani [5] (225 gai/10a) it was 4; in the assay on Pyricularia oryzae [3] (60 ppm) it was 97; with Rhizoctonia solani [6] (7.5 gai/box), 4. Besides, the “Effect (class of control value)” value with Pyricularia oryzae [1] (in vivo) was “A (key: A: Not less than 80%; B: Not less than 50% to less than 80%; C: Less than 50%)”. On to `Cc1ccccc1C(=O)Nc1cccc(OC(C)C)c1` [Mepronil, reference compound], for which the Control value in the assay with Rhizoctonia solani [4] (750 ppm) was 94. On to `C[C@@H](NC(=O)C(C#N)C(C)(C)C)c1ccc(Cl)cc1Cl` (stereo partly shown) [Diclocymet], for which the Control value in the assay on Pyricularia oryzae [2] (1.5 gai/box) is reported as 97.

With `Cc1ccc(C(=O)NCC(NC(=O)OCCBr)C(C)C)cc1` (stereo not shown) [Compound 4], the “Effect (class of control value)” value with Pyricularia oryzae [1] (in vivo) is recorded as “A (key: A: Not less than 80%; B: Not less than 50% to less than 80%; C: Less than 50%)”. Take `N#Cc1ccccc1NC(=O)c1snc(Cl)c1Cl` [Compound 104]: the Control value in the assay with Pyricularia oryzae [2] (1.5 gai/box) came out at 98. Take `Cc1ccc(C(=O)NCC(NC(=O)OC2CCCCC2F)C(C)C)cc1` (stereo not shown) [Compound 16]: in the assay with Pyricularia oryzae [1] (in vivo), the “Effect (class of control value)” value is “A (key: A: Not less than 80%; B: Not less than 50% to less than 80%; C: Less than 50%)”.

Turning to `Cc1ccc(C(=O)NCC(NC(=O)OCC(F)(F)C(F)(F)C(F)(F)F)C(C)C)cc1` (stereo not shown) [Compound 13], in the assay with Pyricularia oryzae [1] (in vivo), the “Effect (class of control value)” value was “A (key: A: Not less than 80%; B: Not less than 50% to less than 80%; C: Less than 50%)”.

With `Cc1ccc(NC(=O)c2snnc2C)cc1Cl` [Tiadinil], the Control value in the assay with Pyricularia oryzae [2] (6 gai/box) was 95. Turning to `Cc1nn(C)c(Cl)c1C(=O)Nc1cccc2c1C(C)OC2(C)C` (stereo not shown) [Furametpyr, reference compound], the Control value is 95 with Rhizoctonia solani [4] (100 ppm), 96 in the assay on Rhizoctonia solani [5] (45 gai/10a) and 96 in the assay with Rhizoctonia solani [6] (2 gai/box). On to `O=C(Nc1ccccc1)N(Cc1ccc(Cl)cc1)C1CCCC1` [Pencycuron, reference compound], for which the Control value in the assay on Rhizoctonia solani [4] (167 ppm) is 95. Consider `CC(C)OC(=O)C(C(=O)OC(C)C)=C1SCCS1` [Isoprothiolane, reference compound], for which the pest or weed control at 400 ppm with Pyricularia oryzae [3] (setting [8]) came to 98%. Regarding `Cc1ccc(C(=O)NCC(NC(=O)OC(CF)CF)C(C)C)cc1` (stereo not shown) [Compound 9], in the assay on Pyricularia oryzae [1] (in vivo), the “Effect (class of control value)” value is on record as “A (key: A: Not less than 80%; B: Not less than 50% to less than 80%; C: Less than 50%)”. In the case of `CC(C)C(CNC(=O)c1nc2ccccc2s1)NC(=O)OCC(F)(F)F` (stereo not shown) [Compound 38], the results for the Control value in the assay with Rhizoctonia solani [4] (60 ppm) and in the assay with Pyricularia oryzae [3] (60 ppm) were 3 and 96, respectively. In addition, the “Effect (class of control value)” value with Pyricularia oryzae [1] (in vivo) is “A (key: A: Not less than 80%; B: Not less than 50% to less than 80%; C: Less than 50%)”. In the case of `CC(C)Oc1cccc(NC(=O)c2ccccc2C(F)(F)F)c1` [Flutolanil, reference compound], the Control value was determined as 94 with Rhizoctonia solani [4] (250 ppm) and 96 in the assay on Rhizoctonia solani [5] (210 gai/10a).

`CO/C=C(/C(=O)OC)c1ccccc1Oc1cc(Oc2ccccc2C#N)ncn1` [Azoxystrobin, reference compound] displayed a Control value in the assay with Rhizoctonia solani [4] (80 ppm) of 93. As for `Cc1ccc(C(=O)NCC(NC(=O)OCCF)C(C)C)cc1` (stereo not shown) [Compound 2], the “Effect (class of control value)” value in the assay on Pyricularia oryzae [1] (in vivo) was “A (key: A: Not less than 80%; B: Not less than 50% to less than 80%; C: Less than 50%)”. For the compound `CC(C)C(CNC(=O)c1nc2ccc(F)cc2s1)NC(=O)OCC(F)(F)F` (stereo not shown) [Compound 37], the Control value in the assay with Rhizoctonia solani [4] (60 ppm) is 3; in the assay with Pyricularia oryzae [3] (60 ppm) it was 98. Moreover, the “Effect (class of control value)” value with Pyricularia oryzae [1] (in vivo) is recorded as “A (key: A: Not less than 80%; B: Not less than 50% to less than 80%; C: Less than 50%)”. Take `C/C(=N/Nc1nc(C)cc(C)n1)c1ccccc1C` [Ferimzone, reference compound]: the pest or weed control at 300 ppm in the assay with Pyricularia oryzae [3] (setting [8]) was determined as 98%. As for `Cc1ccc(C(=O)NCC(NC(=O)OCC(F)(F)F)C2CCCC2)cc1` (stereo not shown) [Compound 36], in the assay on Pyricularia oryzae [1] (in vivo), the “Effect (class of control value)” value is “A (key: A: Not less than 80%; B: Not less than 50% to less than 80%; C: Less than 50%)”. In the case of `Cc1nc(C(F)(F)F)c(C(=O)Nc2c(Br)cc(OC(F)(F)F)cc2Br)s1` [Thifluzamide, reference compound], the Control value in the assay on Rhizoctonia solani [5] (60 gai/10a) and with Rhizoctonia solani [6] (1 gai/box) was 95 each time.

Source of the values: patent publication US20090023667A1 (priority 2005, published 2009).
